Literature values in patent US20080160083A1, “COMPOSITION AND METHOD FOR TREATMENT OF PREMENSTRUAL SYMPTOMS” (priority 2007, published 2008).

Key:
[1] = women taking daily vitamin B6 supplements for PMS whose blood levels of B6 were above normal; Dalton, Lancet 1985
[2] = all adults; Institute of Medicine 1998

Cc1ncc(CO)c(CO)c1O [vitamin B6, 4,5-bis(hydroxymethyl)-2-methylpyridin-3-ol]
neuropathy present (number of women) [1]: 23 of 58
upper tolerable intake level (UL) [2]: 100 mg per day
